Each structure is given as a SMILES string.

For data set [1], the system named is RL CD19+ tumor cells. The data set is described as follows: Acute cytolytic activity, anti-CD19 CAR T cells co-cultured with RL CD19+ tumor cells. The format is cell-based. The protocol: Acute cytolytic activity was measured by tumor cell number over time.
The test system of data set [2] is Granta-519 or Raji target cells. The data set is described as follows: Cytokine production and cytolytic activity of anti-CD19 CAR+ T cells with Granta-519 or Raji target cells. The format is cell-based, human. The protocol:
Similar studies as above were conducted using Granta-519 or Raji target cells to assess cytokine production and cytolytic activity of anti-CD19 CAR-expressing T cells upon co-culture with the target cells. As shown in FIG. 33B Raji cells were selected due to high expression of cell surface molecule CD19 when compared to Granta-519, as quantified by flow cytometry. Enumeration of CD19 was inferred by a standard curve generated using molecules of equivalent soluble fluorophore beads.
After 24 hours of culture cytokine production was monitored in the supernatant. […] Cytolytic activity also was measured for pooled donors over time of the co-culture.

The subject of data set [3] is Granta-519 tumor spheroids. The data set can be described thus: Granta-519 tumor spheroids, concurrent versus rescue treatment of long-term stimulated CAR T cells. The format is cell-based, human. More on the design: cytokine levels at day 5: dose or concentration left out as unconfirmed. The protocol: The long-term stimulated anti-CD19 CAR-expressing T cells were co-cultured by incubation with Granta-519 tumor spheroids and cells were assessed at various time points for cytolytic function and cytokine function. During concurrent treatments Compound 1 was present during the long-term stimulation but was not present during the co-culture with target cells. During the rescue treatment Compound 1 was not present during the long-term stimulation but was present during the co-culture with target cells.

The conditions of data set [4]: given for five days followed by a two day rest period (5/7 days), subjects with DLBCL; cited from earlier work.
For data set [5], the system named is anti-BCMA CAR T cells. The data set is described as follows: Cytokine expression of anti-BCMA CAR T cells stimulated with BCMA-conjugated beads. As to conditions: 24 hours. It counts as cell-based, human. The protocol: Cryofrozen anti-BCMA CAR T cells, produced substantially as described in Example 1 and formulated at a 1:1 ratio of CD4+ and CD8+ T cells, were thawed.
Twenty four hours after addition of BCMA-conjugated beads, the presence of TNF-α, IFNγ, and IL-2 in culture supernatants was assessed.
In a further exemplary study, two different anti-BCMA CAR T cell compositions were generated from different donors, each containing T cells expressing the same anti-BCMA CAR. The cells were thawed and incubated with beads (diameter about 4.5 pm) from a 5 μg/mL or 200 μg/mL BCMA-conjugated bead composition generated as described in Example 1. […] Twenty four hours after addition of BCMA-conjugated beads, IL-2 production by the anti-BCMA CAR+ T cells was assessed in culture supernatants.
The cells were gated on transduced, live CD3+ cells, and assessed by flow cytometry for intracellular cytokine accumulation of IFNγ and TNFα in CD4+ and CD8+ cells.

Data set [6] has as its system RPMI-8226. The data set can be described thus: 7-day prestimulation of anti-BCMA CAR-T cells on BCMA beads, phenotype and re-challenge with RPMI-8226. The format is cell-based, human. The protocol: Expression of CD25, PD-1, Tim3 and Lag3 on CAR T cells (using an antibody for surrogate CAR marker) cultured under the different conditions then was assessed by flow cytometry.
Percentage killing was normalized to anti-BCMA CAR T cells prestimulated on beads in the presence of vehicle. Cytokine production was assessed by ELISA from supernatant following culture with target cells for 24 hours. Experiments were performed twice in 3 donors. […] P values were obtained by likelihood ratio tests comparing the full model with the effect of interest against the model without the effect of interest.

The subject of data set [7] is OPM-2. The note with it: read-out: sensitivity to lenalidomide; cited from earlier work.

Consider `O=C1CC[C@H](N2Cc3c(OCc4ccc(CN5CCOCC5)cc4)cccc3C2=O)C(=O)N1` [Compound 2, (S)-3-[4-(4-morpholin-4-ylmethyl-benzyloxy)-1-oxo-1,3-dihydro-isoindol-2-yl]-piperidine-2,6-dione], for which the “RL tumor cell line sensitivity to monotherapy” value in data set [1] (0.01 μM or 0.1 μM doses) is reported as “sensitive”. The “cytolytic CAR T cell function against RL tumor cells” value in data set [1] (E:T 1:1) is on record as “improved cytolytic CAR T cell function”.

`Cc1nc2cccc(N)c2c(=O)n1C1CCC(=O)NC1=O` (centres unmarked) [Compound 1, 3-(5-amino-2-methyl-4-oxo-4H-quinazolin-3-yl)-piperidine-2,6-dione]: the IL-2 production entry in data set [2] (100 or 1000 nM, 2.5:1 E:T, 24 hours) is on record as “increase compared to control”. In addition, the IFN-γ production entry in data set [2] (100 or 1000 nM, 2.5:1 E:T, 24 hours, CD8+ CAR-expressing T cells) was “concentration dependent increase”. The “cytolytic activity over time” value in data set [2] (pooled donors, CD8+ CAR-expressing T cells) is reported as “limited effect”. Besides, the “cytokine levels at day 5” value in data set [3] (concurrent treatment) is “enhanced IFN-γ”; in data set [3] (delayed treatment with Compound 1), “enhanced production of both IFN-γ and TNF-α”. In addition, the “tumor spheroid size at day 9” value in data set [3] (concurrent treatment with long-term stimulation) and in data set [3] (subsequent treatment after long-term stimulation) was “concentration dependent decrease in tumor volume” throughout. The “maximum tolerated dose (MTD)” value in data set [4] is on record as 4 mg.

Consider `Nc1cccc2c1CN(C1CCC(=O)NC1=O)C2=O` (centres unmarked) [lenalidomide, 3-(4-amino-1-oxo-1,3-dihydro-2H-isoindol-2-yl)piperidine-2,6-dione], for which, in data set [5] (0.1 μM or 1 μM, 5, 50 or 200 μg/mL BCMA beads), the “intracellular IFNγ and TNFα cytokine production” value is “increased”. Besides, the “IL-2 production in culture supernatants” value in data set [5] (1 μM or 5 μM, 5 or 200 μg/mL BCMA beads, two donors) is listed as “increased”. Also, the “BCMA-induced CAR+ T cell cytokine production (TNF-α, IFNγ, IL-2 in supernatants)” value in data set [5] (5 μM, 5 or 50 μg/mL BCMA beads) was “increased”. Further, the “percentage of PD-1+ cells in the CD4+ population” value in data set [6] (1 μM) is reported as “decrease”. The “cytolytic function of prestimulated CAR-T cells” value in data set [6] (1 μM during the prestimulation period) is “preserved”. Besides, in data set [6] (1 μM during the prestimulation period, vs vehicle), the “cytokine production of prestimulated CAR-T cells” value is recorded as “trend toward increased cytokine production”. Also, the total cell count entry in data set [6] (1 μM, 7 days on BCMA beads) was “did not alter”. Moreover, the “CAR+ viability” value in data set [6] (1 μM, 7 days on BCMA beads, 3 healthy donors) is on record as “significantly increased”. Moreover, the “percentage positive for Lag3 expression” value in data set [6] (1 μM, CD4+ and CD8+ CAR+ populations) was “increased”. In addition, in data set [6] (1 μM, all donors), the “CD25 in CD4+ and CD8+ CAR+ populations” value was “increased”. In data set [6] (1 μM, prolonged stimulation), the “PD-1 expression of BCMA-CAR-T cells” value was “reduced”. Besides, the “surface expression of Tim3 in the CD8+ population” value in data set [6] (1 μM, three donors) is recorded as “increased”. In data set [7], the IC50 is 37.4 µM.

Source of the values: patent US20250186503A1, “METHODS AND COMBINATIONS FOR TREATMENT AND T CELL MODULATION” (Juno Therapeutics, Inc., priority 2018, published 2025).
